According to patent publication US20250085284A1, “PRODUCTS AND USES THEREOF FOR PREDICTING THE SENSITIVITY OF A SUBJECT TO CANCER IMMUNOTHERAPY INVOLVING AN ANTI-PD(L)1 AND AN ANTI-ANGIOGENIC AGENT, AND FOR SELECTING OPTIMIZED THERAPY” (INSTITUT GUSTAVE ROUSSY, priority 2023, published 2025):

Tests used:
[1] = test system: plasma cytokines, chemokines and soluble angiogenic factors; assay: Plasma cytokine, chemokine and soluble factor titration on treatment (D-7, C1D1, C1D8); type: in vivo, human
Procedure: Frozen plasma and frozen tumor biopsy supernatants were subsequently thawed, centrifuged for 15 min at 1,000 g, then titrated using Bio-Plex Pro™ Human Chemokine Panel (40-Plex, ref. 171AK99MR2, Bio-rad), Angiogenesis Panel 1 (human) (ref. K151P3S-1, Meso Scale Discovery), Human PD-1 and PD-L1 antibody sets (ref. F214A-3 & F214C-3, Meso Scale Discovery) following manufacturer's instructions. Each sample was run twice with the average value of the doublet taken as the result. Acquisitions were done on Bio-Plex 200™ System and MESO™ QuickPlex SQ120 readers. Raw data from Meso Scale Discovery's kit were analyzed with MSD's Discovery Workbench 4.0.
Inventors took advantage of the one-week lead-in nintedanib monotherapy prior to the pembrolizumab introduction to analyze the respective effects of the two drugs. Sequential blood sampling was performed at baseline and on-treatment in order to identify selective phannacodynamic markers of Nintedanib and Pembrolizumab that occurred upon treatment in all patients and independently from the treatment efficacy. Plasma was obtained from blood draws collected at baseline (D-7), one week after the nintedanib monotherapy lead-in (C1D1) and one week after the addition of pembrolizumab (C1D8). […] CCL15 and CXCL10 were also decreasing in all patients upon Nintedanib monotherapy but this decrease was only significant for patients with DCB (FIG. 10A).

advanced mesothelioma = conditions: monotherapy; n=118; cited from earlier work
[2] = PEMBIB trial, mesothelioma expansion cohort: safety and tolerability (CTCAE Version 4.03); design: species or system human; conditions: in vivo
[3] = one week after initiation of pembrolizumab, DCB and No DCB
[4] = upon pembrolizumab addition (C1D1 to C1D8), only significant in No DCB
[5] = D-7 vs C1D1, one-week nintedanib monotherapy, patients with both DCB and No DCB
[6] = nintedanib monotherapy week, all patients, only significant for DCB

pembrolizumab
circulating soluble PD-1 (sPD1) median level ([1]; C1D8, one week after addition of pembrolizumab to nintedanib, both DCB and No DCB): above 10 ng/mL
plasma CCL19 level ([1]; after one week of combination with pembrolizumab, all patients): increase
circulating soluble PD-L1 (sPDL1) level ([1]; one week after addition of pembrolizumab, all patients): significantly increased
CXCL9 serum level [1, 3]: significant rise
CXCL10 serum level [1, 3]: significant rise
CXCL11 serum level [1, 3]: significant rise
CXCL13 serum level [1, 3]: significant rise
plasma CCL3 level [1, 4]: increased
plasma CCL8 level [1, 4]: increased
plasma CCL17 level [1, 4]: increased
plasma CCL23 level [1, 4]: increased
plasma CXCL2 level [1, 4]: decreased
objective response rate (ORR; BORR per RECIST1.1) (advanced mesothelioma): 8%

COC(=O)c1ccc2c(c1)NC(=O)/C2=C(\Nc1ccc(N(C)C(=O)CN2CCN(C)CC2)cc1)c1ccccc1 [nintedanib]
blood Angiopoietin-2 level [1, 5]: significantly decreased
blood CCL21 level [1, 5]: significantly decreased
blood CCL23 level [1, 5]: significantly decreased
plasma CCL8 level ([1]; first week of nintedanib, patients with DCB): tended to decrease
plasma CCL8 level ([1]; first week of nintedanib, patients with No DCB): significantly increased
plasma CCL15 level [1, 6]: decreasing
plasma CXCL10 level [1, 6]: decreasing
tolerability of nintedanib 150 mg BID versus 200 mg BID [2]: better tolerated
